Test results reported in patent US20100099561A1, “HETEROBICYCLIC ALKYLTHIO-BRIDGED ISOXAZOLINES” (E.I. DU PONT DE NEMOURS AND COMPANY, priority 2008, published 2010).

Columns and labels:
Format in all cases: in vivo
[1] = tested on: morningglory (Ipomoea spp.); assay: Test A preemergence, morningglory; settings: 0 to 100 scale (0 no effect, 100 complete control)
Outline: (§1)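 Scores reflect visual plant injury on a 0 (no effect) to 100 (complete control) scale, assessed about ten days after application in the greenhouse. Compounds were delivered in a non-phytotoxic solvent blend with surfactant, either preemergence to soil or postemergence at one- to two-leaf stage.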

[2] = tested on: umbrella sedge (Cyperus difformis); assay: Test B flooded paddy test, umbrella sedge; settings: Flood, scale 0 to 100
Outline: (§2)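 Compounds were added directly to paddy water over 2-leaf-stage plants in pots flooded 3 cm above soil, water depth maintained. Visual injury scored against controls after 13 to 15 days in greenhouse, 0 (none) to 100 (complete control); dash indicates no result.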

[3] = tested on: pigweed (Amaranthus retroflexus); assay: Test A preemergence, pigweed; settings: 0 to 100 scale (0 no effect, 100 complete control)
Outline: as §1

[4] = tested on: barnyardgrass (Echinochloa crus-galli); assay: Test A preemergence, barnyardgrass; settings: 0 to 100 scale (0 no effect, 100 complete control)
Outline: as §1

[5] = tested on: pigweed (Amaranthus retroflexus); assay: Test A postemergence, pigweed; settings: 0 to 100 scale (0 no effect, 100 complete control)
Outline: as §1

[6] = tested on: morningglory (Ipomoea spp.); assay: Test A postemergence, morningglory; settings: 0 to 100 scale (0 no effect, 100 complete control)
Outline: as §1

[7] = tested on: barnyardgrass (Echinochloa crus-galli); assay: Test A postemergence, barnyardgrass; settings: 0 to 100 scale (0 no effect, 100 complete control)
Outline: as §1

[8] = tested on: ducksalad (Heteranthera limosa); assay: Test B flooded paddy test, ducksalad; settings: Flood, scale 0 to 100
Outline: as §2

[9] = tested on: velvetleaf (Abutilon theophrasti); assay: Test A postemergence, velvetleaf; settings: 0 to 100 scale (0 no effect, 100 complete control)
Outline: as §1

[10] = tested on: wheat (Triticum aestivum); assay: Test A preemergence, wheat; settings: 0 to 100 scale (0 no effect, 100 complete control)
Outline: as §1

corn (Zea mays) [11] = assay: Test A postemergence, corn; settings: 0 to 100 scale (0 no effect, 100 complete control)
Outline: as §1

[12] = tested on: giant foxtail (Setaria faberi); assay: Test A preemergence, giant foxtail; settings: 0 to 100 scale (0 no effect, 100 complete control)
Outline: as §1

rice (Oryza sativa) = assay: Test B flooded paddy test, rice; settings: Flood, scale 0 to 100
Outline: as §2

[13] = tested on: wheat (Triticum aestivum); assay: Test A postemergence, wheat; settings: 0 to 100 scale (0 no effect, 100 complete control)
Outline: as §1

[14] = tested on: giant foxtail (Setaria faberi); assay: Test A postemergence, giant foxtail; settings: 0 to 100 scale (0 no effect, 100 complete control)
Outline: as §1

[15] = tested on: barnyardgrass (Echinochloa crus-galli); assay: Test B flooded paddy test, barnyardgrass; settings: Flood
Outline: as §2

[16] = tested on: large crabgrass (Digitaria sanguinalis); assay: Test A preemergence, large crabgrass; settings: 0 to 100 scale (0 no effect, 100 complete control)
Outline: as §1

corn (Zea mays) [17] = assay: Test A preemergence, corn; settings: 0 to 100 scale (0 no effect, 100 complete control)
Outline: as §1

[18] = tested on: velvetleaf (Abutilon theophrasti); assay: Test A preemergence, velvetleaf; settings: 0 to 100 scale (0 no effect, 100 complete control)
Outline: as §1

[19] = tested on: large crabgrass (Digitaria sanguinalis); assay: Test A postemergence, large crabgrass; settings: 0 to 100 scale (0 no effect, 100 complete control)
Outline: as §1

[20] = 250 g ai/ha, scale 0 to 100 (0 no effect, 100 complete control)

SMILES | Plant response rating, Morningglory ([1]; 125 g ai/ha) | Plant response rating, Sedge, Umbrella ([2]; 62 g ai/ha) | Plant response rating, Sedge, Umbrella ([2]; 250 g ai/ha) | Plant response rating, Pigweed ([3]; 125 g ai/ha) | Plant response rating, Pigweed ([3]; 500 g ai/ha) | Plant response rating, Barnyardgrass ([4]; 125 g ai/ha) | Plant response rating, Barnyardgrass ([4]; 500 g ai/ha) | Plant response rating, Pigweed ([5]; 125 g ai/ha) | Plant response rating, Pigweed ([5]; 500 g ai/ha) | Plant response rating, Morningglory ([6]; 125 g ai/ha) | Plant response rating, Morningglory ([6]; 500 g ai/ha) | Plant response rating, Barnyardgrass ([7]; 125 g ai/ha) | Plant response rating, Barnyardgrass ([7]; 500 g ai/ha) | Plant response rating, Ducksalad ([8]; 62 g ai/ha) | Plant response rating, Ducksalad ([8]; 250 g ai/ha) | Plant response rating, Velvetleaf ([9]; 125 g ai/ha) | Plant response rating, Velvetleaf ([9]; 500 g ai/ha) | Plant response rating, Wheat ([10]; 125 g ai/ha) | Plant response rating, Wheat ([10]; 500 g ai/ha) | Plant response rating, Corn (corn (Zea mays) [11]; 125 g ai/ha) | other results
Cc1cc2nc(C(F)(F)F)c(C[S+]([O-])C3=NOC(C)(C)C3)c(=O)n2o1 (centres unmarked) [Compound 50] | 0 | 0 | 0 | 0 | 0 | 0 | 70 | 0 | 0 | 0 | 10 | 0 | 60 | 0 | 0 | 0 | 0 | 0 | 0 | 0 | Plant response rating, Morningglory ([1]; 500 g ai/ha): 0; Plant response rating, Corn (corn (Zea mays) [11]; 500 g ai/ha): 30; Plant response rating, Foxtail, Giant ([12]; 125 g ai/ha): 0; Plant response rating, Foxtail, Giant ([12]; 500 g ai/ha): 70; Plant response rating, Rice (rice (Oryza sativa); 62 g ai/ha): 0; Plant response rating, Rice (rice (Oryza sativa); 250 g ai/ha): 0; Plant response rating, Wheat ([13]; 125 g ai/ha): 0; Plant response rating, Wheat ([13]; 500 g ai/ha): 0; Plant response rating, Foxtail, Giant ([14]; 125 g ai/ha): 0; Plant response rating, Foxtail, Giant ([14]; 500 g ai/ha): 60; Plant response rating, Barnyardgrass ([15]; 62 g ai/ha, scale 0 to 100): 0; Plant response rating, Barnyardgrass [15, 20]: 0; Plant response rating, Crabgrass, Large ([16]; 125 g ai/ha): 0; Plant response rating, Crabgrass, Large ([16]; 500 g ai/ha): 70; Plant response rating, Corn (corn (Zea mays) [17]; 125 g ai/ha): 0; Plant response rating, Corn (corn (Zea mays) [17]; 500 g ai/ha): 0; Plant response rating, Velvetleaf ([18]; 125 g ai/ha): 0; Plant response rating, Velvetleaf ([18]; 500 g ai/ha): 0; Plant response rating, Crabgrass, Large ([19]; 125 g ai/ha): 0; Plant response rating, Crabgrass, Large ([19]; 500 g ai/ha): 50
CC1(C)CC(S(=O)(=O)Cc2c(C(F)(F)F)nc3cnccn3c2=O)=NO1 [Compound 52] | 0 | 0 | 0 | 0 | 0 | 20 | 80 | 0 | 0 | 0 | 30 | 30 | 90 | 0 | 0 | 0 | 0 | 0 | 0 | 0 | Plant response rating, Morningglory ([1]; 500 g ai/ha): 0; Plant response rating, Corn (corn (Zea mays) [11]; 500 g ai/ha): 0; Plant response rating, Foxtail, Giant ([12]; 125 g ai/ha): 40; Plant response rating, Foxtail, Giant ([12]; 500 g ai/ha): 90; Plant response rating, Rice (rice (Oryza sativa); 62 g ai/ha): 0; Plant response rating, Rice (rice (Oryza sativa); 250 g ai/ha): 0; Plant response rating, Wheat ([13]; 125 g ai/ha): 0; Plant response rating, Wheat ([13]; 500 g ai/ha): 30; Plant response rating, Foxtail, Giant ([14]; 125 g ai/ha): 60; Plant response rating, Foxtail, Giant ([14]; 500 g ai/ha): 80; Plant response rating, Barnyardgrass ([15]; 62 g ai/ha, scale 0 to 100): 0; Plant response rating, Barnyardgrass [15, 20]: 0; Plant response rating, Crabgrass, Large ([16]; 125 g ai/ha): 20; Plant response rating, Crabgrass, Large ([16]; 500 g ai/ha): 80; Plant response rating, Corn (corn (Zea mays) [17]; 125 g ai/ha): 0; Plant response rating, Corn (corn (Zea mays) [17]; 500 g ai/ha): 0; Plant response rating, Velvetleaf ([18]; 125 g ai/ha): 0; Plant response rating, Velvetleaf ([18]; 500 g ai/ha): 0; Plant response rating, Crabgrass, Large ([19]; 125 g ai/ha): 20; Plant response rating, Crabgrass, Large ([19]; 500 g ai/ha): 50
Cc1cc2nc(C(F)(F)F)c(CS(=O)(=O)C3=NOC(C)(C)C3)c(=O)n2o1 [Compound 53] | 0 | 0 | 0 | 0 | 0 | 30 | 90 | 0 | 0 | 0 | 10 | 50 | 90 | 0 | 0 | 0 | 0 | 0 | 0 | 0 | Plant response rating, Corn (corn (Zea mays) [11]; 500 g ai/ha): 0; Plant response rating, Foxtail, Giant ([12]; 125 g ai/ha): 30; Plant response rating, Foxtail, Giant ([12]; 500 g ai/ha): 90; Plant response rating, Rice (rice (Oryza sativa); 62 g ai/ha): 0; Plant response rating, Rice (rice (Oryza sativa); 250 g ai/ha): 0; Plant response rating, Wheat ([13]; 125 g ai/ha): 0; Plant response rating, Wheat ([13]; 500 g ai/ha): 20; Plant response rating, Foxtail, Giant ([14]; 125 g ai/ha): 60; Plant response rating, Foxtail, Giant ([14]; 500 g ai/ha): 80; Plant response rating, Barnyardgrass ([15]; 62 g ai/ha, scale 0 to 100): 0; Plant response rating, Barnyardgrass [15, 20]: 0; Plant response rating, Crabgrass, Large ([16]; 125 g ai/ha): 30; Plant response rating, Crabgrass, Large ([16]; 500 g ai/ha): 90; Plant response rating, Corn (corn (Zea mays) [17]; 125 g ai/ha): 0; Plant response rating, Corn (corn (Zea mays) [17]; 500 g ai/ha): 0; Plant response rating, Velvetleaf ([18]; 125 g ai/ha): 0; Plant response rating, Velvetleaf ([18]; 500 g ai/ha): 0; Plant response rating, Crabgrass, Large ([19]; 125 g ai/ha): 30; Plant response rating, Crabgrass, Large ([19]; 500 g ai/ha): 80
